SMILES strings stand for the structures. Calls of active or inactive are those of the source. The rule behind the calls is not given here.

Here are results for nine compounds from PubChem BioAssay AID1259407 (Chemical Carcinogenesis Research Information System (CCRIS), 2018).

The data set concerns CCRIS mutagenicity, Ames/micronucleus/aberration tests. The data set can be described thus: CCRIS mutagenicity studies.
Setting [1] is: Test System: AMES SALMONELLA TYPHIMURIUM, Strain/Indicator: TA98, Metabolic Activation: NONE, Method: PREINCUBATION
Where [2] appears, read: Test System: AMES SALMONELLA TYPHIMURIUM, Strain/Indicator: TA100, Metabolic Activation: NONE, Method: PREINCUBATION
The mark [3] stands for this setting: Test System: AMES SALMONELLA TYPHIMURIUM, Strain/Indicator: TA1535, Metabolic Activation: NONE, Method: PREINCUBATION
Where [4] appears, read: Test System: AMES SALMONELLA TYPHIMURIUM, Strain/Indicator: TA97, Metabolic Activation: NONE, Method: STANDARD PLATE.
The mark [5] stands for this setting: Test System: AMES SALMONELLA TYPHIMURIUM, Strain/Indicator: TA100, Metabolic Activation: NONE, Method: STANDARD PLATE.
Where [6] appears, read: Test System: AMES SALMONELLA TYPHIMURIUM, Strain/Indicator: TA100, Metabolic Activation: RAT, LIVER, S-9, Method: STANDARD PLATE.
The mark [7] stands for this setting: Test System: AMES SALMONELLA TYPHIMURIUM, Strain/Indicator: TA104, Metabolic Activation: NONE, Method: STANDARD PLATE.
Where [8] appears, read: Test System: AMES SALMONELLA TYPHIMURIUM, Strain/Indicator: TA1535, Metabolic Activation: RAT, LIVER, S-9, AROCLOR 1254, Method: PREINCUBATION
Setting [9] is: Test System: AMES SALMONELLA TYPHIMURIUM, Strain/Indicator: TA102, Metabolic Activation: NONE, Method: STANDARD PLATE.

Turning to `COC(=O)C1=C(C)NC(C)=C(C(=O)OCC(C)=O)C1c1ccccc1[N+](=O)[O-]` (stereo not drawn), the mutagenic call runs as follows: under setting [1], “inactive; negative”; (Test System: AMES SALMONELLA TYPHIMURIUM, Strain/Indicator: TA98, Metabolic Activation: S-9, Method: PREINCUBATION) “inactive; negative”; under setting [2], “inactive; negative”; (Test System: AMES SALMONELLA TYPHIMURIUM, Strain/Indicator: TA100, Metabolic Activation: S-9, Method: PREINCUBATION) “inactive; negative”; under setting [3], “inactive; negative”; (Test System: AMES SALMONELLA TYPHIMURIUM, Strain/Indicator: TA1535, Metabolic Activation: S-9, Method: PREINCUBATION) “inactive; negative”. Besides, the mutagenic call is, setting by setting: (Test System: AMES SALMONELLA TYPHIMURIUM, Strain/Indicator: TA1537, Metabolic Activation: NONE, Method: PREINCUBATION) “inactive; negative”; (Test System: AMES SALMONELLA TYPHIMURIUM, Strain/Indicator: TA1537, Metabolic Activation: S-9, Method: PREINCUBATION) “inactive; negative”; (Test System: E.COLI, Strain/Indicator: WP2 UVRA, Metabolic Activation: NONE, Method: PREINCUBATION) “inactive; negative”; (Test System: E.COLI, Strain/Indicator: WP2 UVRA, Metabolic Activation: S-9, Method: PREINCUBATION) “inactive; negative”.

Take `C#CCOCC[n+]1ccccc1/C=N/O`: the mutagenic call runs as follows: under setting [4], “inactive; negative”; (Test System: AMES SALMONELLA TYPHIMURIUM, Strain/Indicator: TA97, Metabolic Activation: RAT, LIVER, S-9, Method: STANDARD PLATE) “inactive; negative”; under setting [5], “inactive; negative”; under setting [6], “inactive; negative”; under setting [7], “inactive; negative”; (Test System: AMES SALMONELLA TYPHIMURIUM, Strain/Indicator: TA104, Metabolic Activation: RAT, LIVER, S-9, Method: STANDARD PLATE) “inactive; negative”. Moreover, the mutagenic call was “inactive; negative” (Test System: AMES SALMONELLA TYPHIMURIUM, Strain/Indicator: TA1537, Metabolic Activation: NONE, Method: STANDARD PLATE); “inactive; negative” (Test System: AMES SALMONELLA TYPHIMURIUM, Strain/Indicator: TA1537, Metabolic Activation: RAT, LIVER, S-9, Method: STANDARD PLATE); “inactive; negative” (Test System: AMES SALMONELLA TYPHIMURIUM, Strain/Indicator: TA1538, Metabolic Activation: NONE, Method: STANDARD PLATE); “inactive; negative” (Test System: AMES SALMONELLA TYPHIMURIUM, Strain/Indicator: TA1538, Metabolic Activation: RAT, LIVER, S-9, Method: STANDARD PLATE).

For the compound `ClC(Cl)(Cl)c1ccccc1`, the mutagenic call was “active; positive” (Test System: AMES SALMONELLA TYPHIMURIUM, Strain/Indicator: TA98, Metabolic Activation: HAMSTER, LIVER, S-9, AROCLOR 1254 (30%), Method: PREINCUBATION); “inactive; negative” under setting [1]; “active; positive” (Test System: AMES SALMONELLA TYPHIMURIUM, Strain/Indicator: TA98, Metabolic Activation: RAT, LIVER, S-9, AROCLOR 1254 (30%), Method: PREINCUBATION); “active; positive” (Test System: AMES SALMONELLA TYPHIMURIUM, Strain/Indicator: TA98, Metabolic Activation: RAT, LIVER, S-9, AROCLOR 1254, Method: PREINCUBATION); “active; positive” (Test System: AMES SALMONELLA TYPHIMURIUM, Strain/Indicator: TA100, Metabolic Activation: HAMSTER, LIVER, S-9, AROCLOR 1254 (30%), Method: PREINCUBATION); “active; positive” under setting [2]. In addition, the mutagenic call was “active; positive” (Test System: AMES SALMONELLA TYPHIMURIUM, Strain/Indicator: TA100, Metabolic Activation: RAT, LIVER, S-9, AROCLOR 1254 (30%), Method: PREINCUBATION); “active; positive” (Test System: AMES SALMONELLA TYPHIMURIUM, Strain/Indicator: TA100, Metabolic Activation: RAT, LIVER, S-9, AROCLOR 1254, Method: PREINCUBATION); “active; positive” under setting [8].

`N=c1c2ncn(C(c3ccccc3)c3ccccc3)c2ncn1O`: the mutagenic call under setting [4] was “inactive; negative”; the mutagenic call (Test System: AMES SALMONELLA TYPHIMURIUM, Strain/Indicator: TA97, Metabolic Activation: RAT, LIVER, S-9, AROCLOR 1254, Method: STANDARD PLATE) is “inactive; negative”; the mutagenic call (Test System: AMES SALMONELLA TYPHIMURIUM, Strain/Indicator: TA98, Metabolic Activation: NONE, Method: STANDARD PLATE) is “inactive; negative”; the mutagenic call (Test System: AMES SALMONELLA TYPHIMURIUM, Strain/Indicator: TA98, Metabolic Activation: RAT, LIVER, S-9, AROCLOR 1254, Method: STANDARD PLATE) is “active; positive”; the mutagenic call under setting [5] is “inactive; negative”; the mutagenic call (Test System: AMES SALMONELLA TYPHIMURIUM, Strain/Indicator: TA100, Metabolic Activation: RAT, LIVER, S-9, AROCLOR 1254, Method: STANDARD PLATE) was “inactive; negative”.

With `CC1(C)CC(O)CC(C)(C)N1[O]`, the mutagenic call under setting [5] was “active; positive”; the mutagenic call under setting [9] is “inactive; negative”; the mutagenic call (Test System: AMES SALMONELLA TYPHIMURIUM, Strain/Indicator: TA102, Metabolic Activation: XANTHINE OXIDASE, Method: STANDARD PLATE) is “inactive; negative”; the mutagenic call under setting [7] is “inactive; negative”; the mutagenic call (Test System: AMES SALMONELLA TYPHIMURIUM, Strain/Indicator: TA104, Metabolic Activation: XANTHINE OXIDASE, Method: STANDARD PLATE) was “inactive; negative”; the mutagenic call (Test System: Mouse lymphoma, Strain/Indicator: L5178Y (tk+/tk-), Metabolic Activation: None, Method: Suspension/plate) is “active; positive”. In addition, the mutagenic call (Test System: Mouse lymphoma, Strain/Indicator: L5178Y (tk+/tk-), Metabolic Activation: Rat, Liver, S-9, Aroclor 1254, Method: Suspension/plate) is “active; positive”.

Consider `O=C1OC(O)C(CBr)=C1Br` (stereo not drawn), for which, under setting [5], the mutagenic call is “active; positive”.

Take `Cc1ccc(Cl)cc1N`: the mutagenic call reads like this: (End Point: IN VITRO CHROMOSOMAL ABERRATIONS, Test System: CHINESE HAMSTER OVARY CELLS, Metabolic Activation: NONE) “inactive; negative”; (End Point: IN VITRO CHROMOSOMAL ABERRATIONS, Test System: CHINESE HAMSTER OVARY CELLS, Metabolic Activation: RAT, LIVER, S-9, AROCLOR 1254) “inactive; negative”; (Test System: UDS RODENT HEPATOCYTES, Strain/Indicator: THY INCORP (NON-S-PHASE), Metabolic Activation: NONE, Method: AUTORADIOGRAPHY) “inactive; negative”.

On to `CC(C)(S)[C@@H](N)C(=O)O`, for which the mutagenic call reads like this: (Test System: AMES SALMONELLA TYPHIMURIUM, Strain/Indicator: TA92, Metabolic Activation: HOMOGENIZED V-79, Method: STANDARD PLATE) “active; positive”; (Test System: AMES SALMONELLA TYPHIMURIUM, Strain/Indicator: TA92, Metabolic Activation: NONE, Method: STANDARD PLATE) “active; positive”; (Test System: AMES SALMONELLA TYPHIMURIUM, Strain/Indicator: TA92, Metabolic Activation: RAT, KIDNEY, S-9, Method: STANDARD PLATE) “active; positive”; (Test System: AMES SALMONELLA TYPHIMURIUM, Strain/Indicator: TA92, Metabolic Activation: RAT, LIVER, S-9, Method: STANDARD PLATE) “active; positive”; under setting [5], “active; positive”; (Test System: AMES SALMONELLA TYPHIMURIUM, Strain/Indicator: TA100, Metabolic Activation: RAT, KIDNEY, S-9, Method: STANDARD PLATE) “active; positive”. Moreover, the mutagenic call runs as follows: under setting [6], “active; positive”; under setting [9], “active; positive”; (Test System: CHINESE HAMSTER V-79, Strain/Indicator: V-79/6-THIOGUANINE, Metabolic Activation: NONE, Method: STANDARD PLATE) “inactive; negative”.

Turning to `O=NN1CCOC(O)C1` (stereo not drawn), the mutagenic call is “active; positive” under setting [2], “active; positive” under setting [3] and “active; positive” under setting [8].
